Assay results published in publication PMC8333425, “Discovery of a dual Ras and ARF6 inhibitor from a GPCR endocytosis screen” (Nature Communications, 2021).

Columns and labels:
Assay in all cases: KINOMEscan kinase binding assay
[1] = target: T1, 384 kinases from the human genome (Homo sapiens, UniProt P35626); settings: kinase GRK3 (Entrez ADRBK2)
T1 construct: purchased Eurofin/DiscoverX
Method in brief: (§1)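 A panel of 384 human kinases was profiled by KINOMEscan binding in the presence of 10 µM compound. Kinase–ligand binding was given as percent of DMSO control, averaged from duplicates in a single run, with an S(10) selectivity score.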

[2] = target: T2, 384 kinases from the human genome (Homo sapiens, UniProt P42338); settings: kinase PIK3CB (Entrez PIK3CB)
T2 construct: purchased Eurofin/DiscoverX
Method in brief: as §1

[3] = target: T3, 384 kinases from the human genome (Homo sapiens, UniProt Q9NYL2); settings: kinase ZAK (Entrez ZAK)
T3 construct: purchased Eurofin/DiscoverX
Method in brief: as §1

[4] = target: T4, 384 kinases from the human genome (Homo sapiens, UniProt Q6DT37); settings: kinase DMPK2 (Entrez CDC42BPG)
T4 construct: purchased Eurofin/DiscoverX
Method in brief: as §1

[5] = target: T5, 384 kinases from the human genome (Homo sapiens, UniProt Q9H4B4); settings: kinase PLK3 (Entrez PLK3)
T5 construct: purchased Eurofin/DiscoverX
Method in brief: as §1

[6] = target: T6, 384 kinases from the human genome (Homo sapiens, UniProt P22694); settings: kinase PKAC-beta (Entrez PRKACB)
T6 construct: purchased Eurofin/DiscoverX
Method in brief: as §1

[7] = target: T7, 384 kinases from the human genome (Homo sapiens, UniProt O96013); settings: kinase PAK4 (Entrez PAK4)
T7 construct: purchased Eurofin/DiscoverX
Method in brief: as §1

[8] = target: T8, 384 kinases from the human genome (Homo sapiens, UniProt Q04912); settings: kinase MST1R (Entrez MST1R)
T8 construct: purchased Eurofin/DiscoverX
Method in brief: as §1

[9] = target: T9, 384 kinases from the human genome (Homo sapiens, UniProt Q9HAZ1); settings: kinase CLK4 (Entrez CLK4)
T9 construct: purchased Eurofin/DiscoverX
Method in brief: as §1

[10] = target: T10, 384 kinases from the human genome (Homo sapiens, UniProt P0C264); settings: kinase SgK110 (Entrez SgK110)
T10 construct: purchased Eurofin/DiscoverX
Method in brief: as §1

[11] = target: T11, 384 kinases from the human genome (Homo sapiens, UniProt O95819); settings: kinase MAP4K4 (Entrez MAP4K4)
T11 construct: purchased Eurofin/DiscoverX
Method in brief: as §1

[12] = target: T12, 384 kinases from the human genome (Homo sapiens, UniProt Q9NRH2); settings: kinase SNRK (Entrez SNRK)
T12 construct: purchased Eurofin/DiscoverX
Method in brief: as §1

[13] = target: T13, 384 kinases from the human genome (Homo sapiens, UniProt P24941); settings: kinase CDK2 (Entrez CDK2)
T13 construct: purchased Eurofin/DiscoverX
Method in brief: as §1

[14] = target: T14, 384 kinases from the human genome (Homo sapiens, UniProt P16234); settings: kinase PDGFRA (Entrez PDGFRA)
T14 construct: purchased Eurofin/DiscoverX
Method in brief: as §1

[15] = target: T15, 384 kinases from the human genome (Homo sapiens, UniProt Q92772); settings: kinase CDKL2 (Entrez CDKL2)
T15 construct: purchased Eurofin/DiscoverX
Method in brief: as §1

[16] = target: T16, 384 kinases from the human genome (Homo sapiens, UniProt Q9NRP7); settings: kinase STK36 (Entrez STK36)
T16 construct: purchased Eurofin/DiscoverX
Method in brief: as §1

[17] = target: T17, 384 kinases from the human genome (Homo sapiens, UniProt P06239); settings: kinase LCK (Entrez LCK)
T17 construct: purchased Eurofin/DiscoverX
Method in brief: as §1

[18] = target: T18, 384 kinases from the human genome (Homo sapiens, UniProt Q13131); settings: kinase AMPK-alpha1 (Entrez PRKAA1)
T18 construct: purchased Eurofin/DiscoverX
Method in brief: as §1

[19] = target: T19, 384 kinases from the human genome (Homo sapiens, UniProt P17612); settings: kinase PKAC-alpha (Entrez PRKACA)
T19 construct: purchased Eurofin/DiscoverX
Method in brief: as §1

[20] = target: T20, 384 kinases from the human genome (Homo sapiens, UniProt Q8IVW4); settings: kinase CDKL3 (Entrez CDKL3)
T20 construct: purchased Eurofin/DiscoverX
Method in brief: as §1

[21] = target: T21, 384 kinases from the human genome (Homo sapiens, UniProt Q8TF76); settings: kinase HASPIN (Entrez GSG2)
T21 construct: purchased Eurofin/DiscoverX
Method in brief: as §1

[22] = target: T22, 384 kinases from the human genome (Homo sapiens, UniProt Q9Y4K4); settings: kinase MAP4K5 (Entrez MAP4K5)
T22 construct: purchased Eurofin/DiscoverX
Method in brief: as §1

[23] = target: T23, 384 kinases from the human genome (Homo sapiens, UniProt P30291); settings: kinase WEE1 (Entrez WEE1)
T23 construct: purchased Eurofin/DiscoverX
Method in brief: as §1

[24] = target: T24, 384 kinases from the human genome (Homo sapiens, UniProt Q8IW41); settings: kinase MAPKAPK5 (Entrez MAPKAPK5)
T24 construct: purchased Eurofin/DiscoverX
Method in brief: as §1

[25] = target: T25, 384 kinases from the human genome (Homo sapiens, UniProt P32298); settings: kinase GRK4 (Entrez GRK4)
T25 construct: purchased Eurofin/DiscoverX
Method in brief: as §1

[26] = target: T26, 384 kinases from the human genome (Homo sapiens, UniProt P51955); settings: kinase NEK2 (Entrez NEK2)
T26 construct: purchased Eurofin/DiscoverX
Method in brief: as §1

T12 sequence (Q9NRH2 whole entry): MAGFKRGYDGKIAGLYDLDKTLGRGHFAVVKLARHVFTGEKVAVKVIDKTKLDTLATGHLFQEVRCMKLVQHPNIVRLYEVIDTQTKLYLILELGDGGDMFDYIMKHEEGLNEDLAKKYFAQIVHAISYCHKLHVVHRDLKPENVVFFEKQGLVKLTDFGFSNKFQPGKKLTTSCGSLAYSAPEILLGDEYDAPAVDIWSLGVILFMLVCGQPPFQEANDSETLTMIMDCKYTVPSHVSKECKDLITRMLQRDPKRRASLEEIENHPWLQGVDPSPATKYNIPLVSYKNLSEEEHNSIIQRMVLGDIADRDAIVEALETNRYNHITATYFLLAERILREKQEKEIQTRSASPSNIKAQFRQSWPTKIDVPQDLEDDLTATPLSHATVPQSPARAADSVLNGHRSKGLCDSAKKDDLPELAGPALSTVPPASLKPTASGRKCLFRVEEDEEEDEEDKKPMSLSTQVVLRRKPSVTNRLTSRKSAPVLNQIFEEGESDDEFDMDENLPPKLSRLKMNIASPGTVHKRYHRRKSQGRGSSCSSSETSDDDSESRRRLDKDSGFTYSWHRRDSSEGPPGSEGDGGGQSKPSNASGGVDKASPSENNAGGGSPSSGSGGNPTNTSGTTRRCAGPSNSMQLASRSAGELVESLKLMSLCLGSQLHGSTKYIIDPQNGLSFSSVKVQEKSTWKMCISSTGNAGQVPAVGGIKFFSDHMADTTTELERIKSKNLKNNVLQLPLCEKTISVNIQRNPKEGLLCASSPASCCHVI
T11 sequence (O95819 whole entry): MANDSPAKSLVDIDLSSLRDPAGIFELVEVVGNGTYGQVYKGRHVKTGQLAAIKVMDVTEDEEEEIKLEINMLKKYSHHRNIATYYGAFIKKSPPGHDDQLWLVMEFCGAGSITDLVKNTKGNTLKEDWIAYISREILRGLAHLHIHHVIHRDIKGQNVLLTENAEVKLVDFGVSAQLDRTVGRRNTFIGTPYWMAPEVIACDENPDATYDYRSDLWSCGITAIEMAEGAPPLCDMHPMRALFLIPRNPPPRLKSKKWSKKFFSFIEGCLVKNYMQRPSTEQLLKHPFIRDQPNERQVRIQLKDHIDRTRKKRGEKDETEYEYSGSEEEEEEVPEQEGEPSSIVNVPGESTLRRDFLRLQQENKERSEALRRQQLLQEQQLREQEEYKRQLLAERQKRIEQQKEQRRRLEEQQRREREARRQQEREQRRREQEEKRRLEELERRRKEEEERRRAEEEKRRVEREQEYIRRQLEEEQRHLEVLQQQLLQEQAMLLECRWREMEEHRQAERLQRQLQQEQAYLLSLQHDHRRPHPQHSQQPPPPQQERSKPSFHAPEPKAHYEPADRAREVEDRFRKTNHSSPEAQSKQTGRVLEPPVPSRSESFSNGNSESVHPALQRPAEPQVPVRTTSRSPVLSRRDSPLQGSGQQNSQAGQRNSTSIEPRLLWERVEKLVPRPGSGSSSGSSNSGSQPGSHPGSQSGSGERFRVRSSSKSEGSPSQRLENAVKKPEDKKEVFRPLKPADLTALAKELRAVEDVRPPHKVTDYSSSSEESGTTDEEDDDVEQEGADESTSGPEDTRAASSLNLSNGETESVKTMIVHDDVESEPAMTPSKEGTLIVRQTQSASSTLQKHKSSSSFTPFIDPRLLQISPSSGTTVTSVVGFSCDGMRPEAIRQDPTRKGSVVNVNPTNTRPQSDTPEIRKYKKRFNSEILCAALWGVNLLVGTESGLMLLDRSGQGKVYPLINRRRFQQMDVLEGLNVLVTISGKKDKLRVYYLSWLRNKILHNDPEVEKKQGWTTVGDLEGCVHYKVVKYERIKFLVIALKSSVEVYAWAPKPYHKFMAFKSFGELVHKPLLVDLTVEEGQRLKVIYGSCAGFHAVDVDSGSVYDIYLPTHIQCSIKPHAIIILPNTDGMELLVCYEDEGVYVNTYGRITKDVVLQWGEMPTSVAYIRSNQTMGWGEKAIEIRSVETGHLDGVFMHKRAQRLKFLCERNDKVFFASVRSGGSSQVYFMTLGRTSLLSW
T23 sequence (P30291 whole entry): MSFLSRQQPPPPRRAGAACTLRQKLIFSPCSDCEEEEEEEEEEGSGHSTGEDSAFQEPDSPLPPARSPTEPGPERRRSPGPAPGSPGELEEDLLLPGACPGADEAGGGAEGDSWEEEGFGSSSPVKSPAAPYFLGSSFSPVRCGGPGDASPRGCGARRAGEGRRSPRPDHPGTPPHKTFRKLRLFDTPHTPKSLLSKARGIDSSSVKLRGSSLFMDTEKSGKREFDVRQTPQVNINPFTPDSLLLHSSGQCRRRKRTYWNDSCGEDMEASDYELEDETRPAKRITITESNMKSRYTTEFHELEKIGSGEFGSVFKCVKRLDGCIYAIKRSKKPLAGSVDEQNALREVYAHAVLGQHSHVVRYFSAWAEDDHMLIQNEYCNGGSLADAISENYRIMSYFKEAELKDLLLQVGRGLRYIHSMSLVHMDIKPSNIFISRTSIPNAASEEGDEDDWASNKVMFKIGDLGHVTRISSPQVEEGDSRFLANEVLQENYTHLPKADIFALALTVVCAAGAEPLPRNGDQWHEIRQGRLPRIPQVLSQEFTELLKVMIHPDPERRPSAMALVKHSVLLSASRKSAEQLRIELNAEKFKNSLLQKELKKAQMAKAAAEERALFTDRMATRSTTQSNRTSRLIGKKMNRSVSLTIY
T18 sequence (Q13131 whole entry): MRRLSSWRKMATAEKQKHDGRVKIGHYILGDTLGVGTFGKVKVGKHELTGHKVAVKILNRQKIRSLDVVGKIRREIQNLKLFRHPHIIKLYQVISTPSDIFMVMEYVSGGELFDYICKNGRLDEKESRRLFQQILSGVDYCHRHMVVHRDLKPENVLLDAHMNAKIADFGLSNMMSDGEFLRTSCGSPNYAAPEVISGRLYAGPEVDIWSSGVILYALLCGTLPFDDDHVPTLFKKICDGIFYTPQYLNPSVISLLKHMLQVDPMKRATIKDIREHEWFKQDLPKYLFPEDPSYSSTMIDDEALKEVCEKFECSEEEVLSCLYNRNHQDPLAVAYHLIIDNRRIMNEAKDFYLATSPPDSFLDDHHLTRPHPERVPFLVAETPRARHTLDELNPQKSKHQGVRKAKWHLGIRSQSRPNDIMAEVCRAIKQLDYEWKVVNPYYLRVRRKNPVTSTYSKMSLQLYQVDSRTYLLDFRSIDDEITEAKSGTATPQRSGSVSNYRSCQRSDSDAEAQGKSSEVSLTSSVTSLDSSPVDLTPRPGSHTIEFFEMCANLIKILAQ
T9 sequence (Q9HAZ1 whole entry): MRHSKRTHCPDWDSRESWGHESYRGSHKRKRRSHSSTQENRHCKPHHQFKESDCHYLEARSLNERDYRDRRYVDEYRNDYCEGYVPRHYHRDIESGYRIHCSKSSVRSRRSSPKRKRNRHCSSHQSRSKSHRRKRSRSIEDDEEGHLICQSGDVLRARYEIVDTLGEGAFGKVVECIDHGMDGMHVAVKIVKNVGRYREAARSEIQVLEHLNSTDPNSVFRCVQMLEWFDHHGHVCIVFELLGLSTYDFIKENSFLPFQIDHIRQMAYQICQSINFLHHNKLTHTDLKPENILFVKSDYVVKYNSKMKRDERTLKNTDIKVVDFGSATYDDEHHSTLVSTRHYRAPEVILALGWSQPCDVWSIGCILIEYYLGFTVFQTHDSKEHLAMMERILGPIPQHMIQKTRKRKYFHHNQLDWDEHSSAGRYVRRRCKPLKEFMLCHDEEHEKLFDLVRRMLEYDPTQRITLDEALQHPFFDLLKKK
T20 sequence (Q8IVW4 whole entry): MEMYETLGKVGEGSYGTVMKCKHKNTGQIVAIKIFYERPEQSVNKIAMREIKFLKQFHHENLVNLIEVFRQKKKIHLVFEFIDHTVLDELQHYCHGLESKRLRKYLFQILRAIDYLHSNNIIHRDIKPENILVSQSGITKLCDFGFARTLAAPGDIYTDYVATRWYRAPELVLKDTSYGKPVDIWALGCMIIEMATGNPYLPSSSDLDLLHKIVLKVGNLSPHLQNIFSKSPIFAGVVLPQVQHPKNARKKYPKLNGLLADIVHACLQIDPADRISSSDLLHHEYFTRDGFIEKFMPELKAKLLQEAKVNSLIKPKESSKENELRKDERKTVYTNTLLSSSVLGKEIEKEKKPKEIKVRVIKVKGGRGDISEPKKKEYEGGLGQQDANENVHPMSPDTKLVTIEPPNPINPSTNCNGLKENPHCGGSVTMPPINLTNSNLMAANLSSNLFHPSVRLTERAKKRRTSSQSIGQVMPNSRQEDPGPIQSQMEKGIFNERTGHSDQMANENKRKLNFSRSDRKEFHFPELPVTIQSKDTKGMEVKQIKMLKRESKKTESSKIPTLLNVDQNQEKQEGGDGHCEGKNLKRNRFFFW
T25 sequence (P32298 whole entry): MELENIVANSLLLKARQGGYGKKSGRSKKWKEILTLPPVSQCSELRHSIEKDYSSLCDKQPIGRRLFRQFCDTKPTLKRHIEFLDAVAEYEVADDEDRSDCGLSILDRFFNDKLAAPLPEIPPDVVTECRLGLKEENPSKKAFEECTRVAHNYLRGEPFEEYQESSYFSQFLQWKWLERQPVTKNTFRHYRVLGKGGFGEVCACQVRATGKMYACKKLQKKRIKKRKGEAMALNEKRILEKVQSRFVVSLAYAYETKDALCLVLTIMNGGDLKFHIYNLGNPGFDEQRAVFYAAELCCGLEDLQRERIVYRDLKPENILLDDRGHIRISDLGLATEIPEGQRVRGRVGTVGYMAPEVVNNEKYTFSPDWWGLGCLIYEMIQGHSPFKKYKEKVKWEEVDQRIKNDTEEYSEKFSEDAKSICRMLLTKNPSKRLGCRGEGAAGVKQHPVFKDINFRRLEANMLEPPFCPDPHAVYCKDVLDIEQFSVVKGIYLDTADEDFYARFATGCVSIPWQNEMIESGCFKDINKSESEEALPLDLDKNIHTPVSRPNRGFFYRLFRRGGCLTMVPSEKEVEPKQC

## CC(C)C(=O)N1CCN(c2ccc(NC(=O)c3cc4ccccc4o3)cc2Cl)CC1 [Compound 21]
[1]
  Percent Control: 100%
[2]
  Percent Control: 99%
[3]
  Percent Control: 72%
[4]
  Percent Control: 77%
[5]
  Percent Control: 81%
[6]
  Percent Control: 93%
[7]
  Percent Control: 100%
[8]
  Percent Control: 91%
[9]
  Percent Control: 79%
[10]
  Percent Control: 79%
[11]
  Percent Control: 66%
[12]
  Percent Control: 78%
[13]
  Percent Control: 100%
[14]
  Percent Control: 72%
[15]
  Percent Control: 100%
[16]
  Percent Control: 88%
[17]
  Percent Control: 97%
[18]
  Percent Control: 99%
[19]
  Percent Control: 97%
[20]
  Percent Control: 100%
[21]
  Percent Control: 98%
[22]
  Percent Control: 80%
[23]
  Percent Control: 98%
[24]
  Percent Control: 98%
[25]
  Percent Control: 99%
[26]
  Percent Control: 91%
